Experiment [1] deals with HT-29 colorectal cancer cells. Kind of experiment: Induction of apoptosis, Annexin V-FITC / propidium iodide flow cytometry. It is filed as cell-based, human. The note with it: 24 hours. The method, then:
HT-29 human colorectal cancer cells (ATCC HTB-38, Manassas, VA, USA) were cultured in McCoy's 5A medium supplemented with 10% fetal bovine serum (FBS), 2 mM glutamine, 50 U/ml penicillin, 50 μg/ml of streptomycin at 37° C., in atmosphere containing 5% CO2. Subsequently, the cells were counted in a hemocytometer and were transferred in the amount of 1×10^6 cells per well in 1 ml of culture medium from Costar flasks (Sigma, USA) to Nunc 6-well plates (Wiesbaden, Germany). The cells were transferred using calcium-free phosphate buffer with the addition of 0.05% trypsin and 0.02% EDTA. […] Within the subsequent 24 hours the cells covered at least 80% of the surface of each plate well. The cells prepared in this manner were incubated with the examined compounds for 24 hours and then used for further experiments.
Induction of apoptosis was examined by a method using fluorescein isothiocyanate-labelled Annexin V (Annexin V-FITC) which forms complexes with phosphatidylserine in the presence of calcium ions. The complexes were determined using FITC Annexin V Apoptosis Detection Kit II (BD Biosciences, USA) and a flow cytometer BD FACSCanto H (BD Biosciences Systems, San Jose, CA, USA). The analysis of results was carried out by means of FACSDiva software (BD Biosciences Systems, San Jose, CA USA).
DLD-1 and HT-29 cells were incubated for 24 hours in an incubator at 37° C. in a 5% CO2 atmosphere with medium containing the examined compounds according to the invention at specific concentrations. Both examined compounds were used at a concentration of 1.5 μM and 3.0 μM. After the incubation period, the medium was removed, a binding buffer included in the kit was added and the cells were suspended in the buffer. In order to calibrate the apparatus two control samples, i.e. a positive one and a negative one, were prepared. The positive control constituted a reference of control cells in which apoptosis was induced by the addition of 3% formaldehyde. Three control samples were prepared. The first sample contained control cells and propidium iodide, the second sample contained control cells and Annexin V-FITC and the third sample contained control cells, propidium iodide and Annexin V-FITC. After adding 2 μl of 3% formaldehyde the cells were placed in a refrigerator for 10 minutes. Cells that were not treated with any agent constituted the negative control. The cells from the control samples and the cells treated by the examined compounds according to the invention (1×10^6 cells/ml) suspended in the buffer included in the kit were subjected to further examination. 200 μl suspension were taken from each examined sample and were transferred to test tubes. 3 μl Annexin V-FITC and 5 μl propidium iodide (PI) were added to each sample in room temperature and the samples were placed in a dark place for 15 minutes. Cell suspension prepared in this manner was analyzed within one hour in the flow cytometer BD FACSCanto II (BD Biosciences Systems, San Jose, CA, USA) by means of FACSDiva software. The results of the above experiment can be described as follows: live cells (double negative sample—lack of reaction with Annexin V and P), early apoptosis (Annexin V positive and PI negative sample), late apoptosis (Annexin V positive and PI positive sample) and necrosis (Annexin V negative and PI positive sample)
For orientation: A flow cytometer gives signals particle by particle.

The test system of experiment [2] is DLD-1 colorectal cancer cells. Nature of the experiment: Decrease in mitochondrial membrane potential, JC-1 MitoScreen flow cytometry. It is filed as cell-based, human. The note with it: 24 hours. As to the method:
DLD-1 human colorectal cancer cells (ATCC CCL-221, Manassas, VA, USA) were grown in DMEM (Dulbecco's Modified Eagle's Medium) supplemented with 10% fetal bovine serum (FBS), 2 mM glutamine, 50 U/ml penicillin, 50 μg/ml streptomycin at 37° C., in atmosphere containing 5% of CO2. Then the cells were counted in a hemocytometer and transferred in the amount of 1×10^6 cells per well in 1 ml of culture medium from Costar flasks (Sigma, USA) to Nunc 6-well plates (Wiesbaden, Germany). The cells were transferred using calcium-free phosphate buffer with the addition of 0.05% trypsin and 0.02% EDTA. […] Within the subsequent 24 hours the cells covered at least 80% of the surface of each plate well. The cells prepared in this manner were incubated with the examined compounds for 24 hours and then used for further experiments.
For the assessment of changes in mitochondrial potential JC-1 MitoScreen kit (BD Biosciences. USA) was used. DLD-1 and HT-29 cancer cells covering about 80% of the plate surface were incubated with the examined compounds according to the invention at specific concentrations in an incubator at 37° C. in 5% CO2 atmosphere for 24 hours. Both examined compounds according to the invention were used at a concentration of 1.5 μM and 3.0 μM. After the incubation period, the medium was removed, the buffer included in the kit was added and the cells after washing two times were suspended in a mixture of JC-1 dye (5,5′,6,6′-tetrachloro-1,1′,3,3′-tetraethylbenzimidazol carbocyanine iodide) with a buffer at a concentration of 10 μg/ml. Subsequently, the samples were incubated in darkness for 15 minutes, washed with PBS solution and subjected to immediate analysis with the use of BD FacsCanto II flow cytometer; the results were assessed with the use of BD FacsDiva software. In live intact cells JC-1 dye accumulates in mitochondria and forms orange fluorescing aggregates. A decrease in mitochondrial potential ΔΨm is characterized by disintegration of these aggregates and green fluorescence.

The mark [3] stands for this setting: HT-29, 1.5 μM, listed as compound of Formula 2.

In experiment [1] (HT-29, 1.5 μM), `COC(=O)C1CC(O)CN1S(=O)(=O)c1ccc(-n2nc(C)c3nc4nnnn4nc32)cc1` (centres unmarked) [Compound of Formula 3, Methyl 4-hydroxy-1-[4-(7-methyl-5H-pyrazolo[4,3-e]tetrazolo[4,5-b][1,2,4]triazyn-5-yl)phenylsulfonyl]pyrrolidine-2-carboxylate] had an Early apoptosis of 14.5%, a Late apoptosis of 16.0%, a Live cells of 65.0% and a Necrosis of 4.5%. The “early and late apoptotic cells (total)” value in experiment [1] (HT-29, 1.5 μM) is 30.5%. The same compound returned a Necrosis in experiment [1] (HT-29, 1.5 μM, listed as compound of Formula 3) of 4.5%. In experiment [1] (HT-29, 3.0 μM), this compound displayed an Early apoptosis of 25.2%, a Late apoptosis of 13.7% and a Necrosis of 2.6%. The “decrease of ΔΨm, % of the cell population” value in experiment [2] (DLD-1, 1.5 μM) worked out at 49.5%. Further, the “decrease of ΔΨm, % of the cell population” value in experiment [2] (DLD-1, 3.0 μM) was 71.3%.

In experiment [1] (HT-29, 1.5 μM), `COC(=O)C1CCCN1S(=O)(=O)c1ccc(-n2nc(C)c3nc4nnnn4nc32)cc1` (centres unmarked) [Compound of Formula 2, Methyl 1-[4-(7-methyl-5H-pyrazol[4,3-e]tetrazolo[4,5-b][1,2,4]triazyn-5-yl)phenylsulfonyl]pyrrolidine-2-carboxylate] returned an Early apoptosis of 9.0%, a Late apoptosis of 4.7%, a Live cells of 85.3% and a Necrosis of 1.0%. In experiment [1] (setting [3]), this compound gave an Early apoptosis of 9.0%, a Late apoptosis of 4.7% and a Necrosis of 1.0%. In experiment [1] (HT-29, 3.0 μM), this compound returned an Early apoptosis of 9.6%, a Late apoptosis of 9.4%, a Live cells of 78.3% and a Necrosis of 2.7%. In addition, the “apoptotic cells (total)” value in experiment [1] (HT-29, 3.0 μM) is 19.0%. The compound also had a Necrosis in experiment [1] (HT-29, 3.0 μM, listed as compound of Formula 2) of 2.7%. Further, the “decrease of ΔΨm, % of the cell population” value in experiment [2] (DLD-1, 1.5 μM) turned out to be 48.9%. Moreover, in experiment [2] (DLD-1, 3.0 μM), the “decrease of ΔΨm, % of the cell population” value is reported as 63.8%.

These data come from patent US12319699B2, “L-proline sulfonamide derivatives comprising pyrazolo[4,3-e]tetrazolo[4,5-b][1,2,4]triazine system, method of manufacturing thereof, uses thereof and pharmaceutical composition comprising the same” (UNIWERSYTET MEDYCZNY W BIALYMSTOKU, priority 2018, dated 2025).
